One assay has as its system UMRC2 (kidney). Kind of assay: In vitro cell proliferation (SRB) assay, UMRC2. Type of assay: cell-based. As to conditions: Homo sapiens, 96 hours, drug equivalent. As for the experimental part: (§1) Cancer cell lines to determine the effect of HPMA-drug conjugates were obtained from the following sources: Human MDA-MB-231 (breast), HCT116 (colon) and PANC-1 (pancreas), from the American Type Culture Collection (ATCC) (Manassas, Va.). UMRC2 (kidney) from United States National Cancer Institute (Bethesda, Md.). Cells were maintained in Dulbecco's modified Eagle's medium (“DMEM”, Invitrogen) supplemented with 10% FBS, P/S and 10 mM HEPES. All cells were incubated at 37° C. under humidified 5% CO2.
(§2) The growth inhibition assay of HPMA-drug conjugates against human cancer cell lines was performed using the Sulforhodamine B (“SRB”) method (Skehan et al., J. National Cancer Institute, 82: 1107-1112 (1990)). […] After 5 minutes agitation in 10 mM Tris solution, the absorbance of each well was measured at 530 nm using Benchmark Plus Microplate reader (Bio-Rad Laboratories, Hercules, Calif.). The absorbance value provides a direct measure of the number of live cells post-treatment with HPMA copolymer-drug conjugates.
(§3) To translate the OD530 values into the number of live cells in each well, the OD530 values were compared to those on standard OD530-versus-cell number curves generated for each cell line. The percent survival was calculated using the formula: % Survival=live cell number[test]/live cell number[control]×100
(§4) The IC50 values were calculated by non-linear regression analysis.

A further assay has as its system MDA-MB-231 (breast). Kind of assay: In vitro cell proliferation (SRB) assay, MDA-MB-231. Type of assay: cell-based. As to conditions: Homo sapiens, 96 hours, drug equivalent. As for the experimental part: as §1, §2, §3, §4
Another assay relates to HCT116 (colon). Briefly: In vitro cell proliferation (SRB) assay, HCT116. Type of assay: cell-based. As to conditions: Homo sapiens, HCT-116, 96 hours, drug equivalent. As for the experimental part:
as §1, §2, §3, §4

Another assay has as its system PANC-1 (pancreas). Kind of assay: In vitro cell proliferation (SRB) assay, PANC-1. The settings on record: Homo sapiens, 96 hours, drug equivalent. Format: cell-based. As for the experimental part: as §1, §2, §3, §4
In assay [1] the target is glycosylphosphatidylinositol-linked folate receptor (FR). The settings on record: high affinity folate receptor; cited from earlier work.
In a further assay the target is T1, reduced folate carrier (Homo sapiens, UniProt P41440).
T1 sequence (P41440 1-591): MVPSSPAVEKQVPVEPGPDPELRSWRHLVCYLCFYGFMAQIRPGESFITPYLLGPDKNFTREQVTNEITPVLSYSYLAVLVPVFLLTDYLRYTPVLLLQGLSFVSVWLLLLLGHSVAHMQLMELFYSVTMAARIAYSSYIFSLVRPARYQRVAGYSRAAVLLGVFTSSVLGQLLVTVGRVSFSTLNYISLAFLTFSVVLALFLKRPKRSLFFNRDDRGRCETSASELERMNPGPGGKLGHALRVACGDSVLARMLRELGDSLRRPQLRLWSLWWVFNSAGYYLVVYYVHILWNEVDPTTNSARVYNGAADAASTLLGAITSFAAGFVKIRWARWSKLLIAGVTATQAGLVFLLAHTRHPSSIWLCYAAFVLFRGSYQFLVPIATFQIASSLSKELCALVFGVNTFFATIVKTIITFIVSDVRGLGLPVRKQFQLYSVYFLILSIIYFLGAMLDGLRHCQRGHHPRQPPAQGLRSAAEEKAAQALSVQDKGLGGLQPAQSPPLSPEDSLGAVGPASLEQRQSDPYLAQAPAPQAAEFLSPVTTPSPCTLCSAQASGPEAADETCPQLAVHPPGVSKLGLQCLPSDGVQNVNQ
The settings on record: low affinity reduced folate carrier, cellular uptake; cited from earlier work.

A further assay has as its target mucin-1 (Homo sapiens, UniProt P15941). The settings on record: specific ligand of mucin-1; cited from earlier work.

Results on four compounds are retold here after US9434610B2, “HPMA—docetaxel conjugates and uses therefore” (REXAHN PHARMACEUTICALS, INC., priority 2008, dated 2016).

Chain of mucin-1 (P15941 24-1255): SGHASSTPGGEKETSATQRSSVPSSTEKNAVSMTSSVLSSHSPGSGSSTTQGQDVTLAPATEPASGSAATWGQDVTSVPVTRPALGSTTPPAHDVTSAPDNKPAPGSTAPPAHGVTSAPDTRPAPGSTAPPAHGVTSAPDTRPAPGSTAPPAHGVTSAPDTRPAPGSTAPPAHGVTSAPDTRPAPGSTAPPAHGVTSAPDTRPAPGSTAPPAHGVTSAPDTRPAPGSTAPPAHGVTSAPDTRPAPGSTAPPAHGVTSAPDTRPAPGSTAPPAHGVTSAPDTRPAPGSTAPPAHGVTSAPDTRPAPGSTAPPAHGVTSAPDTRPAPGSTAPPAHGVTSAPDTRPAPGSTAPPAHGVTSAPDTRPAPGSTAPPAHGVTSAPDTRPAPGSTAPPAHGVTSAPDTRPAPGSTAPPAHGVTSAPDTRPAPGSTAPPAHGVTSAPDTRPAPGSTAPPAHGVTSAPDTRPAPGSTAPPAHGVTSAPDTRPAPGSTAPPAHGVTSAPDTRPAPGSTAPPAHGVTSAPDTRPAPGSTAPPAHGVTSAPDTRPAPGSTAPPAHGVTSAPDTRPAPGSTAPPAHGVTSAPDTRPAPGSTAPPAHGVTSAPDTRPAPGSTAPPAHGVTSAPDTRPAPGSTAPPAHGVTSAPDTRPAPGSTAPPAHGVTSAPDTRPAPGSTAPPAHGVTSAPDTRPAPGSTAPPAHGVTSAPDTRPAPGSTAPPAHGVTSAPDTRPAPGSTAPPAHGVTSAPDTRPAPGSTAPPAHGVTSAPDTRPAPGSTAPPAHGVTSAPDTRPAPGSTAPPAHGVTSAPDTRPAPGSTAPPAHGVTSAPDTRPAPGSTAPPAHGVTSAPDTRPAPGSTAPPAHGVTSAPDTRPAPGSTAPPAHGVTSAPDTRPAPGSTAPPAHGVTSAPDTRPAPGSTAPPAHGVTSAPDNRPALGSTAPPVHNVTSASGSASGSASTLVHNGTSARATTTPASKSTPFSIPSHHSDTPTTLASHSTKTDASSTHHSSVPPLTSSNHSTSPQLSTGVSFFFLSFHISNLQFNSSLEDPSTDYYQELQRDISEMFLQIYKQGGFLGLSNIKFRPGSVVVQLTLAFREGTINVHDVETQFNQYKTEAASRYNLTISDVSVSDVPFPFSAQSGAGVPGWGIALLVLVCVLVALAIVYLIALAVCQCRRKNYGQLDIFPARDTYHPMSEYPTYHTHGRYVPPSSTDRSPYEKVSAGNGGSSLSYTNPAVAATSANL

As usually defined, the IC50 is the midpoint of a concentration-inhibition curve. As for `CC(=O)O[C@@]12CO[C@@H]1C[C@H](O)[C@@]1(C)C(=O)[C@H](O)C3=C(C)[C@@H](OC(=O)[C@H](O)[C@@H](NC(=O)OC(C)(C)C)c4ccccc4)C[C@@](O)([C@@H](OC(=O)c4ccccc4)[C@H]21)C3(C)C` [Docetaxel], the IC50 with UMRC2 (kidney) came to 0.026 µM; with MDA-MB-231 (breast) it was 0.00077 µM; with HCT116 (colon) it was 0.00055 µM; in the assay with PANC-1 (pancreas), 0.0012 µM.
As a reminder, the Kd is a measure of binding affinity in units of concentration. The term Km denotes the substrate concentration at which the rate is half of its maximum. For `Nc1nc2ncc(CNc3ccc(C(=O)N[C@@H](CCC(=O)O)C(=O)O)cc3)nc2c(=O)[nH]1` [folates, Folic acid], the Kd in assay [1] was approximately 0.1 nM. Besides, the Km at reduced folate carrier was approximately 1 µM.
Consider `Nc1ccn([C@@H]2O[C@H](CO)[C@@H](O)C2(F)F)c(=O)n1` [Gemcitabine], for which the 50% inhibitory concentration (IC50) in the assay on UMRC2 (kidney) came out at 0.29 µM; with MDA-MB-231 (breast) it was 0.22 µM; in the assay with HCT116 (colon), 0.056 µM; with PANC-1 (pancreas), 0.59 µM.
As to “synthetic peptide YCAREPPTRTFAYWG (SEQ ID NO: 9), specific ligand of mucin-1 [EPPT1]”, in the assay with mucin-1, the Kd is 20000 nM.
